Reference: patent US12109218B2, “Compositions of grapiprant and methods for using the same” (ARATANA THERAPEUTICS, INC., priority 2014, dated 2024)

How the values were obtained:
[1] = Pharmacokinetics of capsule, suspension and tablets in dogs (Example 3); assay type: in vivo, dog; details: male dogs; for AUC(0-t) / AUC(0-inf) / Cmax / Tmax / half-life: dog, mean; for AUC(0-t): in vivo; for AUC(0-inf) / Cmax / Tmax / half-life: serum; for AUC0-∞/Dose / Cmax/Dose: dose-normalized mean
Procedure: The objective of this study was to compare the pharmacokinetic profile of several tablet formulations of grapiprant to capsule and aqueous methylcellulose suspension formulations of grapiprant with 20-mg doses. Appropriate amounts of the test article/excipient mixture were placed into gelatin capsules to provide each animal with 20 mg of grapiprant. As the grapiprant content in the excipient blend was 45% of the mixture weight, the total weight of the blend in each capsule was 0.0440 g. The weight tolerance was within ±0.005 g of the nominal capsule content weight.
For the aqueous suspensions (Group 2), the vehicle was 0.5% methyl cellulose (400 centipoise) in water. A 0.3-mg/mL suspension of grapiprant was prepared by adding grapiprant to a calibrated beaker and adding about 60-90% of the 0.5% aqueous methylcellulose to the beaker. A homogenizer was used to blend the material. A stir bar was added to the beaker, and the suspension was stirred for about 5 minutes. The stir bar was removed temporarily to adjust the volume with additional vehicle, and then the suspension was stirred for another 5 minutes before being transferred to a labeled dosing container. The formulation was continuously stirred at the time of dose administration.
Statistical analyses were conducted to determine differences in Cmax, Tmax, and AUCmax Values were normalized by mg/kg, and group means and standard deviations were calculated for numeric data. The actual administered doses ranged from 1.81 to 2.82 mg/kg, and averaged 2.2 mg/kg. No animal was found dead or deemed moribund during the study. All animals were normal at the scheduled observation time of 2 hours postdose.

[2] = system: mechanical hyperalgesia induced by carrageenan model; details: cited from earlier work
[3] = Pharmacokinetics in cats FPK-13-004 (Example 13); assay type: in vivo, cat; details: for AUC(0-t) / Cmax / Tmax / half-life / Cmax/Dose: cats
Procedure: This controlled, non-GLP, laboratory study used three treatment groups: Group 1 was dosed with grapiprant at 2.5 mg/animal; Group 2 was dosed with grapiprant at 5 mg/animal; and Group 3 was dosed with grapiprant at 10 mg/animal. Each dose was administered once on Day 0. Blood samples were collected and processed to serum for pharmacokinetic (PK) analysis. Four hours post-dose, all cats were offered food. Following PK sample collections on Day 1, all animals were released to an open feline colony.
Pharmacokinetic parameters were similar between males and females within each dose group, and therefore mean values were determined by combining data from all animals.

[4] = system: complete Freund's adjuvant-induced chronic inflammatory pain response; details: cited from earlier work
cat serum proteins = test: Binding to cat serum proteins by equilibrium dialysis (Example 11); details: equilibrium dialysis (RED device)
Procedure: Grapiprant concentrations of 200 and 1000 ng/mL in cat serum were subjected to equilibrium dialysis using a Rapid Equilibrium Dialysis (RED) device.

[5] = system: other human prostanoid receptor subtypes; details: cited from earlier work
[6] = system: meniscal release model of osteoarthritis; test: Meniscal release model of osteoarthritis in dogs (Example 8); assay type: in vivo
Procedure: Twenty intact adult female hounds underwent surgical meniscal release of the right stifle and were maintained for at least 8 weeks to allow osteoarthritis to develop. […] Animals were randomized into three groups: negative control (n=6), positive control (n=7) treated with 5 mg/kg firocoxib daily, and grapiprant (n=7) dosed once daily at 30 mg/kg. Dosing was based on baseline bodyweight.
Baseline physical exams, bodyweights, hematology, serum chemistry and urinalysis were obtained on study Day −1 and repeated on Day 13. Orthopedic assessments were conducted on Day −1, Day 2, Day 6, and Day 13, including a kinetics assessment using the GAITRite system to determine left hindlimb: right hindlimb ratios for peak pressure, stride length, step length, and stance time, a 5-point scale lameness evaluation, VAS assessments of right hindlimb function, right stifle pain and effusion, and comfortable range of motion measurements of both stifles using a goniometer.

[7] = 28-day safety and toxicokinetic study in cats (Example 14); assay type: in vivo, cat; details: for half-life: both sexes, domestic shorthair, cat, serum, oral, 15 mg/kg
Procedure: The objective of this study was to evaluate the feline safety and toxicokinetic profiles of grapiprant. Twenty-four domestic shorthair cats were randomly assigned to receive placebo or 3, 9, or 15 mg/kg grapiprant in a capsule formulation (3 males and 3 females per group) once daily for 28 days. All cats received their assigned medications as per protocol. Food consumption and behavior were observed daily, bodyweight measured weekly, and clinical pathology analyses on blood run on Days −7, 14, and 25, and urinalysis run on Days −7, and 25. Serial blood samples for toxicokinetic analyses were obtained following the Day 0 and Day 27 doses. Full necropsies and histopathological evaluations were performed following humane euthanasia on Day 28.

[8] = Day 0, Group 1: single oral 20 mg API in capsule
[9] = Day 0, Group 2: single oral 2 mg/kg, 0.3 mg/mL methylcellulose suspension
[10] = Day 0, Group 1: 20 mg API in capsule
[11] = Day 0, Group 2: methylcellulose suspension
[12] = single dose 5 mg (1 mg/kg), mean of all animals
[13] = for a 4-fold increase in dose from 0.5 to 2 mg/kg

CCc1nc2c(C)nc(C)cc2n1-c1ccc(CCNC(=O)NS(=O)(=O)c2ccc(C)cc2)cc1 [grapiprant, N-{2-[4-(2-ethyl-4,6-dimethyl-1H-imidazo[4,5-c]pyridin-1-yl)phenyl]ethyl}-N′-[(4-methylphenyl)sulfonyl]urea]
AUC(0-t) [1, 8]: 1580 ng·h/mL
AUC(0-t) [1, 9]: 1650 ng·h/mL
AUC(0-inf) [1, 8]: 1640 ng·h/mL
Cmax [1, 8]: 804 ng/mL
Tmax [1, 8]: 1.08 h
half-life [1, 8]: 5.5 h
AUC(0-inf) [1, 9]: 1870 ng·h/mL
Cmax [1, 9]: 751 ng/mL
Tmax [1, 9]: 0.786 h
half-life [1, 9]: 4.1 h
AUC0-∞/Dose [1, 10]: 724 (hr*ng/mL)/(mg/kg)
Cmax/Dose [1, 10]: 359 (ng/mL)/(mg/kg)
AUC0-∞/Dose [1, 11]: 937 (hr*ng/mL)/(mg/kg)
Cmax/Dose [1, 11]: 376 (ng/mL)/(mg/kg)
effect on mechanical hyperalgesia [2]: significantly reduces mechanical hyperalgesia
AUC(0-t) ([3]; both sexes, serum, 2.5 mg/animal, single dose 2.5 mg (0.5 mg/kg), mean of all animals): 4190 ng·h/mL
Cmax ([3]; both sexes, serum, 2.5 mg/animal, single dose 2.5 mg (0.5 mg/kg), mean of all animals, read-out: Cmax): 1060 ng/mL
Tmax ([3]; both sexes, serum, 5 mg/animal, single dose 5 mg (1 mg/kg), mean of all animals, read-out: Tmax): 1.13 h
AUC(0-t) ([3]; both sexes, serum, 10 mg/animal, single dose 10 mg (2 mg/kg), mean of all animals): 21200 ng·h/mL
Cmax ([3]; both sexes, serum, 10 mg/animal, single dose 10 mg (2 mg/kg), mean of all animals, read-out: Cmax): 4430 ng/mL
Tmax ([3]; both sexes, serum, 0.5 to 2 mg/kg, read-out: Mean Tmax values among groups): 1.13 to 1.5 h
half-life ([3]; both sexes, serum, single dose 2.5 mg (0.5 mg/kg), mean of all animals): 1.58 h
half-life ([3]; both sexes, serum, single dose 5 mg (1 mg/kg), mean of all animals): 1.13 h
half-life ([3]; both sexes, serum, single dose 10 mg (2 mg/kg), mean of all animals): 3.44 h
Cmax/Dose ([3]; single dose 2.5 mg (0.5 mg/kg), mean of all animals): 2120 kg·ng/mL/mg
Cmax [3, 12]: 2690 ng/mL
Cmax/Dose [3, 12]: 2500 kg·ng/mL/mg
Cmax/Dose ([3]; single dose 10 mg (2 mg/kg), mean of all animals): 2150 kg·ng/mL/mg
increase in AUClast [3, 13]: 5.06 fold
increase in Cmax [3, 13]: 4.18 fold
effect on chronic inflammatory pain response [4]: reverses complete Freund's adjuvant-induced chronic inflammatory pain response
percent bound (cat serum proteins; 200 ng/mL): 95%
percent bound (cat serum proteins; 1000 ng/mL): 92%
selectivity for EP4 over other human prostanoid receptor subtypes [5]: highly selective for the EP4 receptor over other human prostanoid receptor subtypes
safety ([6]; 30 mg/kg): considered safe for at least a 14-day treatment period
lameness scores ([6]; 30 mg/kg once daily): lower lameness scores in the grapiprant treated group on Day 2 compared to the negative and positive control groups
pain scores ([6]; 30 mg/kg once daily): statistically significant lower pain scores on Days 2 and 6 compared to baseline
serum total protein, albumin, and globulin ([6]; 30 mg/kg once daily): decreases in mean total protein, albumin, and globulin
amelioration of lameness and pain ([6]; 30 mg/kg over 14 days): effective at day 2 in ameliorating lameness and pain
half-life ([7]; capsule 3, 9, or 15 mg/kg once daily, Day 27, read-out: Mean half-lives): 3 to 14 h
half-life ([7]; capsule 3, 9, or 15 mg/kg once daily, Day 27, read-out: half-life, median value): 5 to 6 h
tolerability and adverse effects ([7]; capsule 3, 9, or 15 mg/kg once daily for 28 days): well tolerated, and no adverse effects were noted at daily doses up to 15 mg/kg for 28 days
time after administration at which maximum serum concentrations were reached ([7]; capsule 3, 9, or 15 mg/kg once daily, Day 27): 1 to 4 h
